The text below walks through data of patent US10745416B2, “Macrocyclic compounds for treating disease” (Turning Point Therapeutics, Inc., priority 2017, dated 2020).

Assay [1] concerns KM12 cell (TPM3-TRKA). In words: Cell proliferation assay (CellTiter-Glo, 72 hours). As to conditions: Homo sapiens, KM12, anti-cell proliferation. It is filed as cell-based, human. Summed up:
(§1)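 Cells used were KG-1 (AML), TT medullary thyroid carcinoma ([…]) and KM12 colon (TPM3-TRKA). Viability was read by CellTiter-Glo ATP luminescence, and IC50 derived by curve fitting.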

Assay [2] has as its system KG-1. In words: Cell proliferation assay (CellTiter-Glo, 72 hours). It is filed as cell-based, human. As to conditions: Homo sapiens, KG-1, anti-cell proliferation. Summed up: as §1
Assay [3] concerns the target T1, RET (Y806H) (Homo sapiens, UniProt P07949, Y806H).
T1 construct: purchased Reaction Biology Corporation (assay run at the CRO)
In words: Biochemical kinase assay (Reaction Biology, 33P ATP). The settings on record: 10 μM ATP. On the procedure: (§2) The biochemical kinase assay was performed at Reaction Biology Corporation (www.reactionbiology.com, Malvern, Pa.) following the procedures described in the reference (Anastassiadis T, et al Nat Biotechnol. 2011, 29, 1039). Specific kinase/substrate pairs along with required cofactors were prepared in reaction buffer; 20 mM Hepes pH 7.5, 10 mM MgCl2, 1 mM EGTA, 0.02% Brij35, 0.02 mg/ml BSA, 0.1 mM Na3VO4, 2 mM DTIT, 1% DMSO. Compounds were delivered into the reaction, followed ˜20 minutes later by addition of a mixture of ATP (Sigma, St. Louis Mo.) and ^33P ATP (Perkin Elmer, Waltham Mass.) to a final concentration of 10 μM. Reactions were carried out at room temperature for 120 min, followed by spotting of the reactions onto P81 ion exchange filter paper (Whatman Inc., Piscataway, N.J.). Unbound phosphate was removed by extensive washing of filters in 0.75% phosphoric acid. […] IC50 values and curve fits were obtained using Prism (GraphPad Software).

For assay [4], the target named is T2, RET (V804M) (Homo sapiens, UniProt P07949, V804M).
T2 construct: purchased Reaction Biology Corporation (assay run at the CRO)
Described as above. The settings on record: 10 μM ATP. On the procedure:
as §2

The target of assay [5] is T3, RET (A883F) (Homo sapiens, UniProt P07949, A883F).
T3 construct: purchased Reaction Biology Corporation (assay run at the CRO)
Described as above. As to conditions: 10 μM ATP. On the procedure:
as §2

Assay [6] concerns the target T4, RET (Homo sapiens, UniProt P07949).
T4 construct: purchased Reaction Biology Corporation (assay run at the CRO)
The description is as above. As to conditions: 10 μM ATP. On the procedure:
as §2

The target of assay [7] is T5, RET (E762Q) (Homo sapiens, UniProt P07949, E762Q).
T5 construct: purchased Reaction Biology Corporation (assay run at the CRO)
The description is as above. The settings on record: 10 μM ATP. On the procedure: as §2

The target of assay [8] is T6, RET-NCOA4 (PTC3) (Homo sapiens, UniProt P07949).
T6 construct: fusion transcripts composed of the 3′ end of RET kinase domain and the 5′ end of separate partner genes; NCOA4 N-terminal part (fusion partner); purchased Reaction Biology Corporation (assay run at the CRO)
The assay is described as above. As to conditions: 10 μM ATP. On the procedure: as §2

The target in assay [9] is T7, LYN (Homo sapiens, UniProt P07948).
T7 construct: purchased Reaction Biology Corporation (assay run at the CRO)
The assay is described as above. The settings on record: 10 μM ATP. On the procedure: as §2

The target in assay [10] is T8, RET (V778I) (Homo sapiens, UniProt P07949, V778I).
T8 construct: purchased Reaction Biology Corporation (assay run at the CRO)
The assay is described as above. The settings on record: 10 μM ATP. On the procedure:
as §2

The target of assay [11] is T9, RET (S904A) (Homo sapiens, UniProt P07949, S904A).
T9 construct: purchased Reaction Biology Corporation (assay run at the CRO)
The assay is described as above. The settings on record: 10 μM ATP. On the procedure: as §2

For assay [12], the target named is T10, RET-PRKAR1A (PTC2) (Homo sapiens, UniProt P07949).
T10 construct: fusion transcripts composed of the 3′ end of RET kinase domain and the 5′ end of separate partner genes; PRKAR1A N-terminal part (fusion partner); purchased Reaction Biology Corporation (assay run at the CRO); the other entry of the earlier key: PRKAR1A (P10644, cAMP-dependent protein kinase type I-alpha regulatory subunit)
The description is as above. As to conditions: 10 μM ATP. On the procedure:
as §2

Assay [13] concerns the target T11, BaF3 EML4-ALK (Homo sapiens, UniProt Q9UM73).
T11 construct: The EML4-ALK gene (variant 1) was synthesized at GenScript and cloned into pCDH-CMV-MCS-EF1-Puro plasmid (System Biosciences, Inc); fused on or other part: Q9HC35 (Echinoderm microtubule-associated protein-like 4)
In words: Cell proliferation assay (CellTiter-Glo, 72 hours). The settings on record: anti-cell proliferation. It is filed as cell-based. Put shortly: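 Ba/F3 cells were stably transduced with wild-type EML4-ALK variant 1 and selected for IL-3-independent growth. Cells were seeded for 24 h, then exposed to compounds for 72 h at 37 °C, 5% CO2. Viability was read as ATP luminescence and IC50 values were fitted.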

Assay [14] addresses T12, BaF3 KIF5B-RET_V804M (Homo sapiens, UniProt P07949, V804M, cells depend on it).
T12 construct: fused on or other part: P33176 (Kinesin-1 heavy chain)
In words: Cell proliferation assay (CellTiter-Glo, 72 hours). It counts as cell-based. As to conditions: anti-cell proliferation, read-out: BaF3 KIF5B-RET_V804M IC50. Put shortly:
(§3)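 Ba/F3 cells were lentivirally transduced with wild-type or mutant KIF5B-RET, puromycin-selected and grown without IL-3. CellTiter-Glo ATP luminescence read viability, and IC50 values came from curve fitting.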

The target in assay [15] is T13, BaF3 KIF5B-RET (Homo sapiens, UniProt P07949).
T13 construct: fused on or other part: P33176 (Kinesin-1 heavy chain)
In words: Cell proliferation assay (CellTiter-Glo, 72 hours). As to conditions: anti-cell proliferation, read-out: BaF3 KIF5B-RET IC50. It is filed as cell-based. Summed up:
as §3

Assay [16] deals with T14, BaF3 KIF5B-RET_G810R (Homo sapiens, UniProt P07949, G810R, cells depend on it).
T14 construct: fused on or other part: P33176 (Kinesin-1 heavy chain)
In words: Cell proliferation assay (CellTiter-Glo, 72 hours). It is filed as cell-based. The settings on record: anti-cell proliferation, read-out: BaF3 KIF5B-RET_G810R IC50.

T14 sequence (P07949 whole entry G810R, the tested form may be a part): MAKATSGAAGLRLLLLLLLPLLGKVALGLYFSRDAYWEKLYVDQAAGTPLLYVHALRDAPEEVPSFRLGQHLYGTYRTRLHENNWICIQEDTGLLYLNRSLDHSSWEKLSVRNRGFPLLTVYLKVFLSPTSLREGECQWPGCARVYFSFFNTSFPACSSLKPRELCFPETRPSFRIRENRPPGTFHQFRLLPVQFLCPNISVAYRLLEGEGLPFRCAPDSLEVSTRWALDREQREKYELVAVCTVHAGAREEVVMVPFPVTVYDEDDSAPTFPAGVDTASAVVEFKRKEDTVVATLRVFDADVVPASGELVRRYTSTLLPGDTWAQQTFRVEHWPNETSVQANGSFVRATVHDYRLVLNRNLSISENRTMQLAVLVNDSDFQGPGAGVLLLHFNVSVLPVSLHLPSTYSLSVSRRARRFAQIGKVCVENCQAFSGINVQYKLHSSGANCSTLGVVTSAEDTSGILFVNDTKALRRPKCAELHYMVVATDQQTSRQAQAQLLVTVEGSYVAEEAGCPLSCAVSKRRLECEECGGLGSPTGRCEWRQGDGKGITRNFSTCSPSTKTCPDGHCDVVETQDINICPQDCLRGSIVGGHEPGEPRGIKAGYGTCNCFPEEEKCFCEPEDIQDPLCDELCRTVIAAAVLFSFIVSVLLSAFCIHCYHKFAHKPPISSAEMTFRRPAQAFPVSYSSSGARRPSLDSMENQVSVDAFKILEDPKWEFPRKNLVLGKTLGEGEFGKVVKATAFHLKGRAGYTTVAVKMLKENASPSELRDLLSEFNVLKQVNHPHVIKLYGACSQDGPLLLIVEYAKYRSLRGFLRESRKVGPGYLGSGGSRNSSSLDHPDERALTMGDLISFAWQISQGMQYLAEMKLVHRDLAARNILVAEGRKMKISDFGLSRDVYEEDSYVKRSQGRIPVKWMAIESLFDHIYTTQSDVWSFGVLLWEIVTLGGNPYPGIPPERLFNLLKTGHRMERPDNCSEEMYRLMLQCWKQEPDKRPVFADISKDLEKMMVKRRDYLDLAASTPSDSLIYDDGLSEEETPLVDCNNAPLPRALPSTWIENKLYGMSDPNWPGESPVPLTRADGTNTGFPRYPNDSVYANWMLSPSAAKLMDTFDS
T10 sequence (P07949 with tags, fused parts or gaps): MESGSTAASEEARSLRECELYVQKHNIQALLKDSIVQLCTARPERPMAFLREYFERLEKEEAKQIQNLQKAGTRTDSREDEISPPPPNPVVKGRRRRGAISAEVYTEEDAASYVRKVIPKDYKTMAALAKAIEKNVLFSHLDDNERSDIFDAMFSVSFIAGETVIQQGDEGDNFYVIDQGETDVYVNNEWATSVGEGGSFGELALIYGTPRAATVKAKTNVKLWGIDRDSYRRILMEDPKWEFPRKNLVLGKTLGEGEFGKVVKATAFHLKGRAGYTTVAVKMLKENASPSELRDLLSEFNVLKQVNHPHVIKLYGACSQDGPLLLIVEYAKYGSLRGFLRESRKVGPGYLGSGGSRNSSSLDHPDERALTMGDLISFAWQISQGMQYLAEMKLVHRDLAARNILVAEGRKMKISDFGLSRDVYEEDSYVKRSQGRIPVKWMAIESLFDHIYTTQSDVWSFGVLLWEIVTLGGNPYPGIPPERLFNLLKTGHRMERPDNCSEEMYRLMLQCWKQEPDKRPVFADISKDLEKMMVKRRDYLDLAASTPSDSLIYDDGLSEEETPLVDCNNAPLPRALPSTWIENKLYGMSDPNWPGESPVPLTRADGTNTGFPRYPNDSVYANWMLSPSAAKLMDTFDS
T12 sequence (P07949 whole entry V804M, the tested form may be a part): as the sequence (P07949 whole entry G810R, the tested form may be a part) above, with V804M, R810G counted along it
T3 sequence (P07949 29-1114 A883F): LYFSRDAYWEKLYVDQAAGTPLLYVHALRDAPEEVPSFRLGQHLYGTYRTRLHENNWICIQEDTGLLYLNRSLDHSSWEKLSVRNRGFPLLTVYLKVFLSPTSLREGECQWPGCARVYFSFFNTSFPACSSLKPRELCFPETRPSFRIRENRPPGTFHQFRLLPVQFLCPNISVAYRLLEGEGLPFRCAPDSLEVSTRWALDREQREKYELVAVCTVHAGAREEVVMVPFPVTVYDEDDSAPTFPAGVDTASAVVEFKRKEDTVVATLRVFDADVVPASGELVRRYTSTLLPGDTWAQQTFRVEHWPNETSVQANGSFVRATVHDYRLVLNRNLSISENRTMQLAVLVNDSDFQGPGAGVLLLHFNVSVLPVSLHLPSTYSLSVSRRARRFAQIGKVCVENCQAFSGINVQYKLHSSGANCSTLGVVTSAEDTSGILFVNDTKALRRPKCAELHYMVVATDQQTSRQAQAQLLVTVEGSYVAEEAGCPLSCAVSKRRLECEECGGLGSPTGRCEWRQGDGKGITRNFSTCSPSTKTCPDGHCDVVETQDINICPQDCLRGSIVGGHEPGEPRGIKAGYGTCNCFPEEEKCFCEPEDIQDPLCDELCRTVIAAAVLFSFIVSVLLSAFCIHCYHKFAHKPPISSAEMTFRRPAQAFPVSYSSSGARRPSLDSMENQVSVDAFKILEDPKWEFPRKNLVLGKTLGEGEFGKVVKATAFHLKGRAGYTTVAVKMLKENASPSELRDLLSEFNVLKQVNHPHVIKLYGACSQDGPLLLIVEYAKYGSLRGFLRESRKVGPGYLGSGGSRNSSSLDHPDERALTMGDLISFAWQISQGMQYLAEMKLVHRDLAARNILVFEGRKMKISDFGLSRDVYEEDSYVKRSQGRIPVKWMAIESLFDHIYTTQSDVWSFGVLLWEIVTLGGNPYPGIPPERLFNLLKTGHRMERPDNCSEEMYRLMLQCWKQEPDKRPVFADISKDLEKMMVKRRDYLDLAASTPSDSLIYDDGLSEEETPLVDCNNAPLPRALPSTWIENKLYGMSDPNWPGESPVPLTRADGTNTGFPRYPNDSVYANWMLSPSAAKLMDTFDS
T11 sequence (Q9UM73 whole entry, change not shown, the tested form may be a part): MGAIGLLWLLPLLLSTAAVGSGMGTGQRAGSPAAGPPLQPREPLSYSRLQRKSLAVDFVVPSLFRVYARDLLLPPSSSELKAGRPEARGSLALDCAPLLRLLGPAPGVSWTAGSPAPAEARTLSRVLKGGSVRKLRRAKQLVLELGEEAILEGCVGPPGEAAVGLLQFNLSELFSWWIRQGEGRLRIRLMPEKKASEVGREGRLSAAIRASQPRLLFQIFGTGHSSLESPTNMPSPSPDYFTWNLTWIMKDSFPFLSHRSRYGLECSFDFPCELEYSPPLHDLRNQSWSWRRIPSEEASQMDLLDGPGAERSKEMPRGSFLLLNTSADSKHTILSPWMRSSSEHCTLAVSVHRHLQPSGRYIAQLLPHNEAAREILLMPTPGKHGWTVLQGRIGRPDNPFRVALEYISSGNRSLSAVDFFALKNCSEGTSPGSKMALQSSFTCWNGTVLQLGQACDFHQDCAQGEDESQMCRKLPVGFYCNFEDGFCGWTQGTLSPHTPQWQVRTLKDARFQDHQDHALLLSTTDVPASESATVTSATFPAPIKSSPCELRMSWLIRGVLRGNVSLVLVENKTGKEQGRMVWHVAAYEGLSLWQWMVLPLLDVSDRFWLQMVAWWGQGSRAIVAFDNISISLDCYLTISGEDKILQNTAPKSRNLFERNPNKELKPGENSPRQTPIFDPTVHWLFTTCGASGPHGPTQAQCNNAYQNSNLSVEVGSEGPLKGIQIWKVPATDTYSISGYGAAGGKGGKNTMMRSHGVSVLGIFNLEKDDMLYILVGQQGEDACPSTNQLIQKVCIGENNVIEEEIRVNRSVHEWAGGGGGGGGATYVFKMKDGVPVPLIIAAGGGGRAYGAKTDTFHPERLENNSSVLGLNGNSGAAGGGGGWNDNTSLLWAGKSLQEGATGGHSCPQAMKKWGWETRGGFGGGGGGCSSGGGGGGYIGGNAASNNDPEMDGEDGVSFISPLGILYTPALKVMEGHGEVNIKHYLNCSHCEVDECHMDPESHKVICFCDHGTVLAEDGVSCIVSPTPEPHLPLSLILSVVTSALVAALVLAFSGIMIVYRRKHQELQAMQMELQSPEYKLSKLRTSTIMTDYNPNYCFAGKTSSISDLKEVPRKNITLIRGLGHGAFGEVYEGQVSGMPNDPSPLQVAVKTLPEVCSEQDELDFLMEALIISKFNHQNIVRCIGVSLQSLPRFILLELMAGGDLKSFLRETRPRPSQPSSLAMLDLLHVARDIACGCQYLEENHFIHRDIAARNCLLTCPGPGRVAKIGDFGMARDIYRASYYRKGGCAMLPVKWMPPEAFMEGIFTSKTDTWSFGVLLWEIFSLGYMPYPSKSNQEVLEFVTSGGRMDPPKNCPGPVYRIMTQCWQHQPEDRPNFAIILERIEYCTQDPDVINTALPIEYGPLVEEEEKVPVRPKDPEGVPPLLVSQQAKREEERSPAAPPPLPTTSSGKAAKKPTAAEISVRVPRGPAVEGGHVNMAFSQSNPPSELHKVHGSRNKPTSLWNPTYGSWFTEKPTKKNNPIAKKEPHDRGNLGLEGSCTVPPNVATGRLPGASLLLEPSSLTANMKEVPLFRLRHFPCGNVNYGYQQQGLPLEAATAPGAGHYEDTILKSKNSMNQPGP
T1 sequence (P07949 29-1114 Y806H): as the sequence (P07949 29-1114 A883F) above, with Y778H, F855A counted along it
T4 sequence (P07949 29-1114): as the sequence (P07949 29-1114 A883F) above, with F855A counted along it
T2 sequence (P07949 29-1114 V804M): as the sequence (P07949 29-1114 A883F) above, with V776M, F855A counted along it
T5 sequence (P07949 29-1114 E762Q): as the sequence (P07949 29-1114 A883F) above, with E734Q, F855A counted along it
T8 sequence (P07949 29-1114 V778I): as the sequence (P07949 29-1114 A883F) above, with V750I, F855A counted along it
T13 sequence (P07949 whole entry, change not shown, the tested form may be a part): as the sequence (P07949 whole entry G810R, the tested form may be a part) above, with R810G counted along it
T9 sequence (P07949 29-1114 S904A): as the sequence (P07949 29-1114 A883F) above, with F855A, S876A counted along it

In the case of `C[C@H]1CNC(=O)c2cnn3cc4c(nc23)N(Cc2cc(F)ccc2O1)[C@@H]1CCC[C@@H]1O4` [Compound 1, (3aR,11S,20aS)-7-fluoro-11-methyl-2,3,3a,12,13,20a-hexahydro-1H,5H-17-19-(metheno)cyclopenta[5,6][1,4] oxazino[3,4-i]pyrazolo[4,3-f][1,4,8,10]benzoxatriacyclotridecin-14(11H)-one], the IC50 was found to be 3 nM in assay [1]; 131 nM in assay [2]; 0.385 nM in [3]; 7.86 nM in assay [4]; 0.52 nM in [5]; 0.0994 nM in [6]. Besides, the IC50 is 2.07 nM in assay [7]; 0.0635 nM in assay [8]; 1.97 nM in assay [9]; less than 0.0508 nM in [10]; 0.159 nM in [11]; 0.129 nM in [12]. Moreover, the GI50 was 211 nM in assay [13], 1000 nM in assay [14], 0.25 nM in assay [15] and 30 nM in [16].

Consider `C[C@H]1CNC(=O)c2cnn3cc4c(nc23)N(Cc2cc(F)cnc2O1)[C@@H]1CCC[C@@H]1O4` [Compound 5, (3aR,11S,20aS)-7-fluoro-11-methyl-2,3,3a,12,13,20a-hexahydro-1H,5H-17-19-(metheno)cyclopenta[5,6][1,4] oxazino[3,4-i]pyrazolo[4,3-f]pyrido[3,2-l][1,4,8,10]oxatriazacyclotridecin-14(11H)-one], for which the IC50 is 6.9 nM in [1]; 26.8 nM in assay [2]; 0.261 nM in assay [3]; 18.8 nM in assay [4]; 3.08 nM in assay [5]; 1.01 nM in [6]. For the same compound, the IC50 in [7] came to 0.58 nM; in [8], 0.691 nM; in [9], 2.03 nM; in [10], 0.233 nM; in assay [11] it was 1.22 nM; in assay [12], 0.29 nM. Besides, the GI50 came to 516 nM in assay [13], 598 nM in assay [14], 2.4 nM in assay [15] and 22 nM in assay [16].
